The values that follow come from patent US20260001928A1 (CORTERIA PHARMACEUTICALS, priority 2022, published 2026).

Data set [1] concerns the target T1, human CRF2a receptor (Homo sapiens, UniProt Q13324).
T1 construct: expressed in transfected cells; host or cells: TeloHEAC cells
T1 sequence (Q13324 1-411): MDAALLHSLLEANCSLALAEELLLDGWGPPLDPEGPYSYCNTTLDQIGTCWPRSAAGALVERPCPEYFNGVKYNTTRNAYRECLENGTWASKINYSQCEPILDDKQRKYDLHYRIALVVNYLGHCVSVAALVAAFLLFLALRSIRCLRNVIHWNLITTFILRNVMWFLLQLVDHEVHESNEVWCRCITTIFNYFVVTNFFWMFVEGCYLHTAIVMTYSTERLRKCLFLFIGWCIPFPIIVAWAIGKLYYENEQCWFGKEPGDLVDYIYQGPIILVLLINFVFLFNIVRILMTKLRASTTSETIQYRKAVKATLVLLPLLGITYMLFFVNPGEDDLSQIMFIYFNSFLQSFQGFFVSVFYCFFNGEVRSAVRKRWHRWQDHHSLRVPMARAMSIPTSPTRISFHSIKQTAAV
Description: Activity at human CRF2a receptor, cAMP functional assay in TeloHEAC cells. Particulars: TeloHEAC cells stably expressing human CRF2a receptor, relative to urocortin 2 (100 nM = 100%). It counts as cell-based. Put shortly:
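TeloHEAC cells stably expressing human CRF2a (10000 cells/well) were treated with 16-point 1:2 compound dilutions in HBSS/20 mM HEPES with IBMX for 30 min at 37° C. cAMP was read by HTRF (665/620 nm ratio). EC50 was the concentration giving 50% activation, with 100 nM urocortin 2 set as 100%.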

Data set [2] in a line: Pharmacokinetics in male Sprague Dawley rats after subcutaneous administration. It counts as in vivo. Conditions: plasma, rat, IV.
The nature of data set [3]: In vitro subcutaneous tissue supernatant (SCts) stability and metabolite identification, rat. Conditions: male, Sprague Dawley; rat subcutaneous tissue supernatant (SCts), 37° C, 2 h. Further details: remaining at 2 h: dose or concentration left out as unconfirmed. It counts as in vitro ADME.
A short description of data set [4]: Chemical stability in buffer (pH 7.4 / pH 4.5), % purity loss. It counts as physicochemical. Particulars: 40° C. vs 5° C., 14 or 28 days; for Buffer stability pH 7.4 % purity loss: 100 mM phosphate buffer pH 7.4. A digest of the protocol:
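Compounds dissolved at 10 mg/mL target in 100 mM phosphate (pH 7.4) or 100 mM acetate (pH 4.5) buffer for 1 h at room temperature, then centrifuged. Diluted supernatant stored at 5 °C or 40 °C for 14 or 28 days; % purity loss by LC-UV.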

The nature of data set [5]: Pharmacokinetics in male Sprague Dawley rats after subcutaneous administration. Particulars: plasma, rat, SC, 0.05 mg/kg. It counts as in vivo.
The target in data set [6] is T2, CFR1R receptor (Homo sapiens, UniProt P34998).
T2 construct: host or cells: CHO-K1 (clone 2)
T2 sequence (P34998 24-415): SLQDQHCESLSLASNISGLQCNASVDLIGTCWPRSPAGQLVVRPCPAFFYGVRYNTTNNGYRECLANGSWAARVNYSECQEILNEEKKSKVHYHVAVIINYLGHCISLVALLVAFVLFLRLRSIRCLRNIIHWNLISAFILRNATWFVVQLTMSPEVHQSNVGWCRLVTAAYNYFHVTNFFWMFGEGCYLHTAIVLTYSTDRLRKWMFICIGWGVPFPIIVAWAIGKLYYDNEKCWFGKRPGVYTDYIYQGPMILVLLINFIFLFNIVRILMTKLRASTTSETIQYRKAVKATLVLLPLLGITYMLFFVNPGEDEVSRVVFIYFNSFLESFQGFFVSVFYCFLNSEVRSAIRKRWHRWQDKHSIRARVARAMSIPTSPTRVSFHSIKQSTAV
In words: Activity at anti-target CFR1R receptor, cAMP assay in CRF1R-overexpression CHO-K1 cells. It counts as cell-based. Particulars: 100% = Sauvagine at 100 nM; for EC50: cAMP. A digest of the protocol: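 Clone 2 cells were cultured in F12 (Hams)/10% FBS/400 μg/ml G418 at 37° C./5% CO2, frozen in medium with 10% DMSO, and thawed vials used. The protocol followed the TeloHAEC procedure, with 4000 cells/well final and Sauvagine at 100 nM defining 100% activation.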
On the technique in general: cAMP levels reflect the balance of adenylyl cyclase and phosphodiesterase activity.

The subject of data set [7] is Sprague Dawley rats. Description: Effect on systolic blood pressure, telemetry in Sprague Dawley rats. It counts as in vivo, rat. Particulars: 0.1 mg/kg SC; for Systolic blood pressure (Mean) % change from baseline, 8 h / Systolic blood pressure (Mean) % change from baseline, 12 h / Systolic blood pressure (Mean) % change from baseline, 24 h: n=2; for Duration of action: last time point with an effect on BP still observed. Put shortly: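 Sprague Dawley rats with abdominal-aorta telemetry catheters, recovered ≥10 days, received 0.1 mg/kg SC of compound or vehicle. Systolic pressure recorded 1 h pre-dose as baseline, then continuously up to 48 hours, expressed as % change from baseline; duration of action is last time point with a BP effect (n=2).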

*1 amine or outer side, *2 acyl side, *3 side chain or, on linkers, in order; H or OH if unused. Where a SMILES comes first, the peptide text is derived from it. Side-chain parts run from the residue outwards. [ ]: non-standard residue; d: D form. The star is where a group is joined. C20 diacid = O=C(O)CCCCCCCCCCCCCCCCCCC(=O)*; C18 diacid = O=C(O)CCCCCCCCCCCCCCCCC(=O)*; γGlu = O=C(O)[C@H](CCC(=O)[*:2])N[*:1]; Pentanoyl = CCCCC(=O)*; AEEA = NCCOCCOCC(=O)O; Aib = CC(C)(N)C(=O)O Some results are limits rather than exact numbers.

In general, EC50 refers to the concentration giving half of the maximal effect. As a reminder, the AUC(0-t) is exposure summed from dosing to a finite time, without extrapolation to infinity. In general, half-life refers to the time needed for the level to fall by half in the phase considered. Broadly, the amount remaining is what is left of the initial amount, in per cent. As usually defined, the Cmax is the peak of the concentration-time curve. As usually defined, the Tmax is the time at which the peak concentration occurs.

Turning to `CCCCC(=O)N[C@H](C(=O)N[C@@H](CC(C)C)C(=O)N[C@@H](CO)C(=O)N[C@@H](CC(C)C)C(=O)N[C@@H](CC(=O)O)C(=O)N[C@@H](C(=O)N1CCC[C@H]1C(=O)N[C@H](C(=O)N[C@@H](CCCCN)C(=O)N[C@@H](CC(C)C)C(=O)N[C@@H](CCCCNC(=O)CC[C@H](NC(=O)CCCCCCCCCCCCCCCCCCC(=O)O)C(=O)O)C(=O)N[C@@H](CCCCN)C(=O)N[C@H](C(=O)N[C@@H](CC(C)C)C(=O)N[C@@H](CC(C)C)C(=O)N[C@@H](CCC(=O)O)C(=O)N[C@@H](CCC(N)=O)C(=O)N[C@@H](CCC(=O)O)C(=O)N[C@@H](CCCCN)C(=O)N[C@@H](CCC(N)=O)C(=O)N[C@@H](CCCCN)C(=O)N[C@@H](C)C(=O)N[C@@H](CCC(N)=O)C(=O)N[C@@H](CCCNC(=N)N)C(=O)N[C@@H](CCC(=O)O)C(=O)N[C@@H](CCC(N)=O)C(=O)N[C@@H](C)C(=O)N[C@@H](CCC(=O)O)C(=O)N[C@H](C(=O)N[C@@H](CC(N)=O)C(=O)NC(C)(C)C(=O)N[C@@H](CCC(N)=O)C(=O)N[C@H](C(=O)N[C@@H](CC(C)C)C(=O)N[C@@H](C)C(=O)N[C@@H](CCC(N)=O)C(=O)N[C@H](C(N)=O)C(C)C)[C@@H](C)CC)[C@@H](C)O)[C@@H](C)CC)[C@@H](C)CC)C(C)C)C(C)C` [compound 222] (Pentanoyl-VLSLD[dV]PIKLK([γGlu-C20 diacid])KILLEQEKQKAQREQAETN[Aib]QILAQV-NH2), the response in data set [1] was half-maximal at 140 pM (EC50). In data set [2] (0.025 mg/kg), the AUC(0-t) worked out at 3320 ng·h/mL and the half-life was 7 h. Moreover, the share remaining at 2 h in data set [3] was found to be 62%. Also, the “Buffer stability pH 7.4 % purity loss” value in data set [4] is reported as 0.0/Not Tested %. Besides, in data set [5], the AUC(0-t) stood at 2890 ng·h/mL, the peak level (Cmax) was 113 ng/mL, the Tmax was 8 h and the half-life was 12 h. Also, the “Emax (% I)” value in data set [6] worked out at 50 % I.
The compound `CC[C@H](C)[C@H](NC(C)=O)C(=O)N[C@H](C(=O)N[C@@H](CC(C)C)C(=O)N[C@@H](CO)C(=O)N[C@@H](CC(C)C)C(=O)N[C@@H](CC(=O)O)C(=O)N[C@@H](C(=O)N1CCC[C@H]1C(=O)N[C@H](C(=O)N[C@@H](CCCCN)C(=O)N[C@@H](CC(C)C)C(=O)N[C@@H](CCCCNC(=O)CC[C@H](NC(=O)CCCCCCCCCCCCCCCCC(=O)O)C(=O)O)C(=O)N[C@@H](CCCCN)C(=O)N[C@H](C(=O)N[C@@H](CC(C)C)C(=O)N[C@@H](CC(C)C)C(=O)N[C@@H](CCC(=O)O)C(=O)N[C@@H](CCC(N)=O)C(=O)N[C@@H](CCC(=O)O)C(=O)N[C@@H](CCCCN)C(=O)N[C@@H](CCC(N)=O)C(=O)N[C@@H](CCCCN)C(=O)N[C@@H](C)C(=O)N[C@@H](CCC(N)=O)C(=O)N[C@@H](CCCNC(=N)N)C(=O)N[C@@H](CCC(=O)O)C(=O)N[C@@H](CCC(N)=O)C(=O)N[C@@H](C)C(=O)N[C@@H](CCC(=O)O)C(=O)N[C@H](C(=O)N[C@@H](CC(N)=O)C(=O)NC(C)(C)C(=O)N[C@@H](CCC(N)=O)C(=O)N[C@H](C(=O)N[C@@H](CC(C)C)C(=O)N[C@@H](C)C(=O)N[C@@H](CCC(N)=O)C(=O)N[C@H](C(N)=O)C(C)C)[C@@H](C)CC)[C@@H](C)O)[C@@H](C)CC)[C@@H](C)CC)C(C)C)C(C)C` [compound 189] (Ac-IVLSLD[dV]PIKLK([γGlu-C18 diacid])KILLEQEKQKAQREQAETN[Aib]QILAQV-NH2) showed an EC50 in data set [1] of 290 pM. Besides, in data set [2] (0.05 mg/kg), the AUC(0-t) worked out at 5040 ng·h/mL and the half-life is 7.5 h. The share remaining at 2 h in data set [3] worked out at 67%. Also, in data set [7], the “Systolic blood pressure (Mean) % change from baseline, 8 h” value is reported as −27%; the “Systolic blood pressure (Mean) % change from baseline, 12 h” value is −25%; the “Systolic blood pressure (Mean) % change from baseline, 24 h” value was −13%; the Duration of action is recorded as greater than 24 h. Besides, the “Buffer stability pH 7.4 % purity loss” value in data set [4] is reported as 0.0/Not Tested %. In data set [6], the “Emax (% I)” value worked out at 9 % I and the EC50 was greater than 250000 pM.
With `CCCCC(=O)N[C@H](C(=O)N[C@@H](CC(C)C)C(=O)N[C@@H](CO)C(=O)N[C@@H](CC(C)C)C(=O)N[C@@H](CC(=O)O)C(=O)N[C@@H](C(=O)N1CCC[C@H]1C(=O)N[C@H](C(=O)N[C@@H](CCCCN)C(=O)N[C@@H](CC(C)C)C(=O)N[C@@H](CCCCNC(=O)COCCOCCNC(=O)CC[C@H](NC(=O)CCCCCCCCCCCCCCCCCCC(=O)O)C(=O)O)C(=O)N[C@@H](CCCCN)C(=O)N[C@H](C(=O)N[C@@H](CC(C)C)C(=O)N[C@@H](CC(C)C)C(=O)N[C@@H](CCC(=O)O)C(=O)N[C@@H](CCC(N)=O)C(=O)N[C@@H](CCC(=O)O)C(=O)N[C@@H](CCCCN)C(=O)N[C@@H](CCC(N)=O)C(=O)N[C@@H](CCCCN)C(=O)N[C@@H](CCCCN)C(=O)N[C@@H](CCC(N)=O)C(=O)N[C@@H](CCCNC(=N)N)C(=O)N[C@@H](CCC(=O)O)C(=O)N[C@@H](CCC(N)=O)C(=O)N[C@@H](C)C(=O)N[C@@H](CCC(=O)O)C(=O)N[C@H](C(=O)N[C@@H](CC(N)=O)C(=O)NC(C)(C)C(=O)N[C@@H](CCC(N)=O)C(=O)N[C@H](C(=O)N[C@@H](CC(C)C)C(=O)N[C@@H](C)C(=O)N[C@@H](CCC(N)=O)C(=O)N[C@H](C(N)=O)C(C)C)[C@@H](C)CC)[C@@H](C)O)[C@@H](C)CC)[C@@H](C)CC)C(C)C)C(C)C` [compound 235] (Pentanoyl-VLSLD[dV]PIKLK([AEEA-γGlu-C20 diacid])KILLEQEKQKKQREQAETN[Aib]QILAQV-NH2), a half-maximal effect in data set [1] (EC50) was put at 160 pM. In data set [2] (0.025 mg/kg), this compound had an AUC(0-t) of 4510 ng·h/mL and a half-life of 8 h. In data set [3], the amount remaining at 2 h worked out at 66%. For the same compound, in data set [7], the “Systolic blood pressure (Mean) % change from baseline, 8 h” value is recorded as −8%; the “Systolic blood pressure (Mean) % change from baseline, 12 h” value is given as −7%; the “Systolic blood pressure (Mean) % change from baseline, 24 h” value is recorded as −12%; the Duration of action is given as greater than 24 h. Moreover, the “Buffer stability pH 4.5 % purity loss” value in data set [4] (100 mM acetate buffer pH 4.5) was −1.6%. Moreover, the “Buffer stability pH 7.4 % purity loss” value in data set [4] worked out at 0.0%. Also, in data set [6], the “Emax (% I)” value is listed as 27 % I and the EC50 was greater than 250000 pM.
